# According to US10273226B2, “Pyrazolyl-heteroarylamides as pesticides” (Bayer Animal Health GmbH, priority 2014, dated 2019):
# Experiments:
# Type in all cases: in vivo
# Rhipicephalus sanguineus = Rhipicephalus sanguineus in vitro contact test with adult brown dog ticks; conditions: application rate 5 μg/cm^2 (500 g/ha); after 48 h; ticks dead or moribund
# Method in brief: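 Test tubes (25 ml) were coated by dissolving active ingredient in acetone p.a., diluting to the required concentration, and spreading 250 μl over the inner walls and base on an orbital shaker at 30 rpm for 2 h. Once dry, 5-10 adult Rhipicephalus sanguineus were added, and tubes were capped with perforated lids and kept horizontal in darkness at room temperature. At 48 h, ticks were knocked down and heated at 45-50° C. for up to 5 min. Those unable to climb away were counted dead or moribund, and efficacy ran from 0% to 100%.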
# Ctenocephalides felis [1] = experiment: Ctenocephalides felis oral test; conditions: application rate 100 ppm in citrated cattle blood; after 2 days
# Method in brief: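 Fleas ingest treated citrated cattle blood (DMSO formulation) through parafilm; percent killed assessed after two days.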
# Phaedon cochleariae = Phaedon cochleariae spray test; conditions: application rate 100 g/ha; larvae; after 7 days
# Method in brief: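 Mortality of Phaedon larvae, in %, was read 7 days after release onto sprayed, dried Brassica pekinensis leaf discs. Test dilutions were prepared in water with 1000 ppm emulsifier. A score of 0% means no larvae died and 100% means all were killed.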
# Ctenocephalides felis [2] = experiment: Ctenocephalides felis in vitro contact test with adult cat fleas; conditions: application rate 5 μg/cm^2 (500 g/ha); after 48 h; fleas dead or moribund
# Method in brief: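 Adult Ctenocephalides felis (5-10 per tube) were held 48 h at room temperature in tubes whose inner walls carried dried active ingredient, e.g. 5 μg/cm^2 from a 900 ppm acetone coating. Percent efficacy reflects fleas motionless or uncoordinated after being knocked to the tube base.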
# Amblyomma hebraeum = Amblyomma hebraeum test (tick nymphs, immersion); conditions: application rate 100 ppm; tick nymphs immersed one minute; after 42 days
# Protocol: (§1) Solvent: dimethyl sulphoxide
# To produce an appropriate active ingredient formulation, 10 mg of active ingredient are mixed with 0.5 ml of dimethyl sulphoxide, and the concentrate is diluted with water to the desired concentration.
# Tick nymphs (Amblyomma hebraeum) are placed into perforated plastic cups and immersed in the desired concentration for one minute. The ticks are transferred on filter paper into a Petri dish and stored in a climate-controlled cabinet.
# After 42 days, the kill in % is determined. 100% means that all of the ticks have been killed; 0% means that none of the ticks have been killed.
# [3] = test system: Boophilus microplus Parkhurst strain, SP-resistant; experiment: Boophilus microplus dip test; conditions: application rate 100 ppm, assessed after 7 days
# Protocol: Boophilus microplus—Dip Test
# Test animals: cattle ticks (Boophilus microplus) Parkhurst strain, SP-resistant
# as §1
# 10 mg of active ingredient are dissolved in 0.5 ml of dimethyl sulphoxide. For the purpose of producing a suitable formulation, the active ingredient solution is diluted with water to the concentration desired in each case.
# This active ingredient formulation is pipetted into tubes. 8-10 adult engorged female cattle ticks (Boophilus microplus) are transferred into a further tube with holes. The tube is immersed into the active ingredient formulation, and all the ticks are completely wetted. After the liquid has run out, the ticks are transferred on filter discs into plastic dishes and stored in a climate-controlled room.
# Efficacy is assessed after 7 days by laying of fertile eggs. Eggs which are not visibly fertile are stored in a climate-controlled cabinet until the larvae hatch after about 42 days. An efficacy of 100% means that none of the ticks has laid any fertile eggs; 0% means that all the eggs are fertile.
# Boophilus microplus = Boophilus microplus injection test; conditions: application rate 20 μg/animal; injection into abdomen; assessed after 7 days
# Method in brief: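 Compound dissolved in DMSO (10 mg per 0.5 ml, then diluted with DMSO to test concentration); 1 μl injected into the abdomen of 5 engorged adult female ticks, which are then held in a climate-controlled room. Efficacy judged after 7 days by laying of fertile eggs.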
# Lucilia cuprina = Lucilia cuprina test; conditions: application rate 100 ppm; L1 larvae; after 2 days
# Method in brief: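 Mortality read at 2 days as percent larvae killed (100% = all, 0% = none). Test used roughly 20 first-instar larvae on minced horsemeat dosed with water-diluted DMSO formulation of compound.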
# Spodoptera frugiperda = Spodoptera frugiperda spray test; conditions: application rate 100 g/ha; caterpillars; after 7 days
# Method in brief: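 Percent kill of armyworm caterpillars was scored 7 days after they were placed on dried, sprayed Zea mays leaf discs. Spray solutions were made by dissolving active ingredient in solvent and diluting with 1000 ppm emulsifier water.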
# Musca domestica = Musca domestica test; conditions: application rate 100 ppm; adult houseflies; after 2 days
# Method in brief: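 Water-diluted DMSO stock of compound, mixed onto a sugar-treated sponge, served as the sole exposure route for ten adult houseflies. Kill percentage scored at 2 days.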
# Tetranychus urticae = Tetranychus urticae spray test, OP-resistant; conditions: application rate 100 g/ha; after 6 days
# Method in brief: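 Percent kill is assessed 6 days after spraying infested Phaseolus vulgaris leaf discs, with all mite stages present. Compound is applied as a solvent/emulsifier aqueous formulation at the desired concentration.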
# Myzus persicae = Myzus persicae spray test; conditions: application rate 100 g/ha; after 6 days
# Method in brief: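 Efficacy, as % of aphids killed (0-100%), was scored 6 days after spraying. Test solutions were made in solvent diluted with water containing 1000 ppm emulsifier. They were sprayed onto Brassica pekinensis leaf discs carrying mixed-stage Myzus persicae.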
SMILES,efficacy (Rhipicephalus sanguineus) [%],efficacy (kill in %) (Ctenocephalides felis [1]) [%],efficacy (Phaedon cochleariae) [%],efficacy (Ctenocephalides felis [2]) [%],efficacy (kill in %) (Amblyomma hebraeum) [%],efficacy (laying of fertile eggs) [3] [%],efficacy (laying of fertile eggs) (Boophilus microplus) [%],efficacy (kill in %) (Lucilia cuprina) [%],efficacy (Spodoptera frugiperda) [%],efficacy (kill in %) (Musca domestica) [%],efficacy (Tetranychus urticae) [%],efficacy (Myzus persicae) [%]
Cn1nc(C(F)(F)C(F)(F)F)c(C(F)(F)F)c1-n1cc(-c2ccc(F)c(NC(=O)c3ccncc3)c2)cn1 [Example 1-025],100,100,100,100,100,100,100,100,100,100,100,100
Cc1ccc(-c2cnn(-c3c(C(F)(F)F)c(C(F)(F)C(F)(F)F)nn3C)c2)cc1NC(=O)c1ccncc1 [Example 1-040],100,100,100,100,100,100,100,100,100,100,100,100
Cc1cc(C(=O)Nc2cc(-c3cnn(-c4c(C(F)(F)F)c(C(F)(F)C(F)(F)F)nn4C)c3)ccc2F)ccn1 [Example 1-087],80,100,100,100,90,100,100,100,100,100,100,90
